Data taken from PubChem BioAssay AID2060627 (Molecular Pharmacology Branch, DTP, NCI, 2025).

Test system: 156681-154-R-J1-PDC complex spheroid viability
Test: Anticancer human tumor 156681-154-R-J1-PDC patient-derived melanoma cell line growth inhibition [CLK]
Conditions: for IC50: curve of first compound; for viability, T/C: stronger effect = lower value; active means viability on the fitted dose curve at most 10% of control; inactive means the rest
From the text: A high-throughput screen of multi-cell type tumor spheroids was designed to identify active combinations of […] and targeted small molecules. Complex spheroids include a stromal component modeled by human endothelial cells (HUVEC) and fibroblasts modeled by human mesenchymal stem cells (MSCs). The concentration ranges selected for each drug and investigational agent were based upon clinically achievable concentrations if the clinical Cmax of the agent was known.
Compounds. The drugs and investigational agents: cirtuvivint (SM08502; NSC835563), CC-671 (NSC850746), vemurafenib (NSC761431), tapotoclax (NSC804041), sotorasib (NSC818433), adagrasib (NSC831453), MRTX-1133 (NSC836407), BAY2416964 (NSC825713), copanlisib (NSC816437), inavolisib (NSC800729), abemaciclib (NSC768073), osimertinib (NSC779217), entinostat (NSC756642), eltanexor (KPT-8602, NSC794443), venetoclax (NSC766270), ceralasertib (NSC777638), bortezomib (NSC756655), olaparib (NSC753686), talazoparib (NSC767125), alisertib (NSC759677), peposertib (NSC802822), gemcitabine (NSC613327), 5-fluorouracil (NSC19893), SN-38 (NSC673596), oxaliplatin (NSC266046), paclitaxel (NSC125973), and doxorubicin (NSC123127), were obtained from the National Cancer Institute (NCI) Developmental Therapeutics Program Chemical Repository. The FDA-approved anticancer drug set is available from the Developmental Therapeutics Program at https://dtp.cancer.gov/organization/dscb/obtaining/available plates.htm. […] The stock solutions were prepared in dimethyl sulfoxide (DMSO, Sigma-Aldrich, St. Louis, MO, cat. D2650), except for the platinum complexes which were prepared in saline (Quality Biological, Gaithersburg, MD, cat. 114-055-101), at 800-fold the tested concentration and stored at -70 degrees C prior to their use. All drugs and investigational agents were tested over a range starting from a high concentration at or near the clinical Cmax and decreasing in half-log increments. If the clinical Cmax for an agent had not been determined, the highest concentration tested was 10 microM.
Cell Culture. All cells were maintained in an incubator at 37 degrees C and 5% CO2 with 95% humidity. The PDC lines were cultured according to standard operating procedures established by the NCI PDMR. Briefly, all PDCs were thawed and cultured in Matrigel-coated flasks prepared with a working solution of 1X Ham's F-12 nutrient mix, without supplementation (Invitrogen, Waltham, MA, cat. 11765054), 100 U/mL penicillin-streptomycin (Invitrogen, cat. 15140122), and 2.5% Matrigel (Corning Inc., Corning, NY, cat. 354248) for the first three passages. The 947758-054-R-J2-PDC line was cultured in 6B/Colon 1A media, which includes advanced DMEM/F-12 (Thermo Fisher Scientific, cat. 12634028), 10 mM HEPES (Thermo Fisher Scientific, cat. 15630080), 1X GlutaMAX supplement (Thermo Fisher Scientific, cat. 35050061), 0.1 mg/mL primocin (InvivoGen, cat. ant-pm-2), 10% defined fetal bovine serum, heat inactivated (HyClone Laboratories Inc., cat. SH30070.03HI), 1.25 mM N-Acetyl-L-cysteine (Sigma-Aldrich, cat. A9165), 10 mM nicotinamide (Sigma-Aldrich, cat. N0636), 1X B-27 supplement (Thermo Fisher Scientific, cat. 17504044), 1X N-2 supplement (Thermo Fisher Scientific, cat. 17502048), and 10 microM Y-27632 dihydrochloride (Tocris Bioscience, cat. 1254). The 876862-298-R-J1-PDC was cultured in 6E media, which includes all 6B/Colon 1A media components plus 50% L-WRN conditioned media (ATCC, cat. CRL-3276), 50 ng/mL recombinant human EGF recombinant protein (hEGF; Thermo Fisher Scientific, cat. PHG0311), 10 ng/mL recombinant human fibroblast growth factor 10 (hGFG-10; PeproTech, cat. 100-26), 1 ng/mL recombinant human fibroblast growth factor 2 (hFGF-2; PeproTech, cat. 100-18B), and 1 µM prostaglandin E2 (PGE2; Tocris, cat. 2296). The 227483-062-R1-J1-PDC line was cultured in Panc media, containing all 6E components except hFGF-2, with the addition of 500 nM SB-431542 (Selleckchem, cat. S1067) and 10 nM gastrin (Tocris, cat. 3006). […]

[1] = second compound 0.0316 µM, first compound 0.0316 µM
[2] = second compound 0.0316 µM, first compound 0.1 µM
[3] = second compound 0.0316 µM, first compound 0.316 µM
[4] = second compound 0.0316 µM, first compound 1 µM
[5] = second compound 0.1 µM, first compound 0.0316 µM
[6] = second compound 0.1 µM, first compound 0.1 µM
[7] = second compound 0.1 µM, first compound 0.316 µM
[8] = second compound 0.1 µM, first compound 1 µM
[9] = second compound 0.316 µM, first compound 0.0316 µM
[10] = second compound 0.316 µM, first compound 0.1 µM
[11] = second compound 0.316 µM, first compound 0.316 µM
[12] = second compound 0.316 µM, first compound 1 µM
[13] = second compound 1 µM, first compound 0.0316 µM
[14] = second compound 1 µM, first compound 0.1 µM
[15] = second compound 1 µM, first compound 0.316 µM
[16] = second compound 1 µM, first compound 1 µM
[17] = second compound 3.16 µM, first compound 0.0316 µM
[18] = second compound 3.16 µM, first compound 0.1 µM
[19] = second compound 3.16 µM, first compound 0.316 µM
[20] = second compound 3.16 µM, first compound 1 µM
[21] = second compound 10 µM, first compound 0.0316 µM
[22] = second compound 10 µM, first compound 0.1 µM
[23] = second compound 10 µM, first compound 0.316 µM
[24] = second compound 10 µM, first compound 1 µM
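Further: spheroids exposed to the agents for seven days.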

CC(CO)NC(=O)c1cc(-c2ccc(Cl)cc2)nn(-c2cnn(C)c2)c1=O (centres undefined) + CN1CCN(c2cc(C(=O)Nc3cc4cc(-c5cnn(C)c5)ccc4cn3)ccn2)CC1
inactive: viability, T/C [1] 97.7% | viability, T/C [2] 107% | viability, T/C [3] 103% | viability, T/C [4] 114% | viability, T/C (second compound 0.0316 µM, first compound 3.16 µM) 84.2% | viability, T/C (second compound 0.0316 µM, first compound 10 µM) 59.6% | viability, T/C [5] 99.3% | viability, T/C [6] 94.7% | viability, T/C [7] 87.5% | viability, T/C [8] 81.8% | viability, T/C (second compound 0.1 µM, first compound 3.16 µM) 67% | viability, T/C (second compound 0.1 µM, first compound 10 µM) 56% | viability, T/C [9] 26.8% | viability, T/C [10] 38.3% | viability, T/C [11] 34.2% | viability, T/C [12] 29.2% | viability, T/C (second compound 0.316 µM, first compound 3.16 µM) 29.1% | viability, T/C (second compound 0.316 µM, first compound 10 µM) 21.5%
> 10 µM: IC50 (second compound 0.0316 µM) | IC50 (second compound 0.1 µM)
< 0.0316 µM: IC50 (second compound 0.316 µM) | IC50 (second compound 1 µM) | IC50 (second compound 3.16 µM) | IC50 (second compound 10 µM)
active: viability, T/C [13] 0.34% | viability, T/C [14] 0.99% | viability, T/C [15] 0.36% | viability, T/C [16] 1.64% | viability, T/C (second compound 1 µM, first compound 3.16 µM) 1.51% | viability, T/C (second compound 1 µM, first compound 10 µM) 2.77% | viability, T/C [17] 0.25% | viability, T/C [18] 0.92% | viability, T/C [19] 0.29% | viability, T/C [20] 1.68% | viability, T/C (second compound 3.16 µM, first compound 3.16 µM) 0.58% | viability, T/C (second compound 3.16 µM, first compound 10 µM) 0.23% | viability, T/C [21] 0.29% | viability, T/C [22] 0.66% | viability, T/C [23] 0.9% | viability, T/C [24] 1.31% | viability, T/C (second compound 10 µM, first compound 3.16 µM) 0.62% | viability, T/C (second compound 10 µM, first compound 10 µM) 1.4%

COc1c(OCCCN2CCOCC2)ccc2c3n(c(=NC(=O)c4cnc(N)nc4)nc12)CCN3 + CN1CCN(c2cc(C(=O)Nc3cc4cc(-c5cnn(C)c5)ccc4cn3)ccn2)CC1
inactive: viability, T/C (second compound 0.0316 µM, first compound 0.00316 µM) 76.1% | viability, T/C (second compound 0.0316 µM, first compound 0.01 µM) 58.8% | viability, T/C [1] 36.8% | viability, T/C [2] 12.7% | viability, T/C (second compound 0.1 µM, first compound 0.00316 µM) 76.2% | viability, T/C (second compound 0.1 µM, first compound 0.01 µM) 55.5% | viability, T/C [5] 29.6% | viability, T/C [6] 10.3% | viability, T/C (second compound 0.316 µM, first compound 0.00316 µM) 18.1% | viability, T/C (second compound 0.316 µM, first compound 0.01 µM) 15%
active: viability, T/C [3] 2.94% | viability, T/C [4] 0.44% | viability, T/C [7] 1.15% | viability, T/C [8] 0.6% | viability, T/C [9] 6.26% | viability, T/C [10] 2.42% | viability, T/C [11] 1.79% | viability, T/C [12] 0.42% | viability, T/C (second compound 1 µM, first compound 0.00316 µM) 0.13% | viability, T/C (second compound 1 µM, first compound 0.01 µM) 0.95% | viability, T/C [13] 0.12% | viability, T/C [14] 0.27% | viability, T/C [15] 0.51% | viability, T/C [16] 0.4% | viability, T/C (second compound 3.16 µM, first compound 0.00316 µM) 0.05% | viability, T/C (second compound 3.16 µM, first compound 0.01 µM) 0.16% | viability, T/C [17] 0.12% | viability, T/C [18] 1.29% | viability, T/C [19] 1.19% | viability, T/C [20] 2.81% | viability, T/C (second compound 10 µM, first compound 0.00316 µM) 0.04% | viability, T/C (second compound 10 µM, first compound 0.01 µM) 1.39% | viability, T/C [21] 2.94% | viability, T/C [22] 0.1% | viability, T/C [23] 0.81% | viability, T/C [24] 0.71%
< 0.00316 µM: IC50 (second compound 0.316 µM) | IC50 (second compound 1 µM) | IC50 (second compound 3.16 µM) | IC50 (second compound 10 µM)
0.0129 µM: IC50 (second compound 0.1 µM)
0.016 µM: IC50 (second compound 0.0316 µM)
